Measured values as given in patent publication US6469049B1, “Method of treating, preventing or inhibiting central nervous system injuries and diseases” (The United States of America as represented by the …, priority 2000, dated 2002).
“Also recorded” adds a separate entry of the source.

Key:
cultured neurons = assay: H2O2-induced oxidative insult in cultured neurons, MTT assay of neuroprotection; assay type: cell-based, rat; conditions: for % Neuroprotection: 4 h incubation, then 50 μM H2O2 30 min, MTT after 24 h, mean ± SEM; for effect on the neuroprotective efficacy of DHL: H2O2 insult
Source text: (§1) Primary cultures may be established following the procedures outlined by Koenig, M. L., et al., (1996) Brain Res. 730:143-149, which is herein incorporated by reference. The forebrains of fetal rat pups (embryonic day 15) are isolated and the cells are dispersed by repeated trituration in neuronal culture medium (NCM). NCM comprises a 1:1 ratio of Ham's F-12 (Biofluids, Rockville, Md.) to Basal Medium Eagle (Sigma, St. Louis, Mo.), supplemented with 0.6 g/L of dextrose, 0.35% glutamine and 1% Pen-Strep (Biofluids. Rockville, Md.). Following centrifugation at 900×g for 5 minutes, the cells are plated onto poly-L-lysine-coated 48 well plates at a density of 10^6 cells/ml. To suppress glial growth. the cultures are treated with cytosine arabinoside (10^−5 M) for 4 days. All cultures are maintained in an incubator comprising 5% CO2 at 37° C. for about 6 days to about 15 days prior to use.
Oxidative injury is assessed by using an MTT assay (Sigma, St. Louis, Mo.). About 24 h after exposure to either hemoglobin or an oxidative insult, MTT is added to each test well such that the final concentration of the dye is about 0.15 mg/ml. Plates are returned to the incubator for about 1 hr at which time unincorporated MTU is removed and the plates are allowed to air dry. The purple formazan product indicative of viable cells is then dissolved by adding about 250 μl of acidified isopropanol comprising about 95% isopropanol and about 5% 2N HCl. About 200 μl aliquots are collected and the absorbance of these aliquots are measured on an ELISA plate reader at about 540 nm. Control (untreated) wells are included in each experiment, and viability is calculated as the percentage of mean control values for each plate.
Cultured neurons were incubated with four DHL concentrations, 3.0, 10.0, 30.0, and 100.0 micromolar of DHL, with or without 10 mM SPBN for four hours. After incubation. an oxidative insult was applied by adding 50 micromolar of H2O2 for 30 minutes after which the medium was removed and replaced with Minimum Essential Medium (MEM) (Sigma. St. Louis, Mo.). After 24 hours, the colormetric MTT assay as described above was conduced to determine amount of neuroprotection.
Cultured neurons were incubated with four DHL concentrations, 3.0, 10.0, 30.0. and 100.0 micromolar of DHL, with or without 10 mM PBN for four hours. After incubation, an oxidative insult was applied by adding 50 micromolar of H2O2 for 30 minutes after which the medium was […] Minimum Essential Medium (MEM) (Sigma, St. Louis, Mo.). After 24 hours, the colormetric MTT assay as described above was conduced to determine amount of neuroprotection.

rats = assay: Experimental spinal cord injury (dynorphin A injection) in rats, motor scores; assay type: in vivo; conditions: rat, about 5 micromoles DHLA intrathecally, 2 hour pretreatment and treatment after injury
Method: Here, about 5 micromoles of DHLA was administered intrathecally as a 2 hour pretreatment. Flaccid paralysis was acutely evident about 10 minutes after injection with dynorphin A and where there was no pretreatment with DHLA or co-treatment with DHLA. […] See Long et al., (1999) Neurosci. Abs. 25, which is herein incorporated reference.

[1] = system: primary cultures of neurons derived from the forebrains of E-15 rat fetuses; assay: Hemoglobin-induced toxicity in cultured neurons, MTT viability assay; assay type: cell-based
Method: See Koenig et al., (1999) Neurosci. Abs., 25, which is herein incorporated by reference. […] […] Neuronal viability was assessed by using the calorimetric MT assay of succinate dehydrogenase activity. MTT is a calorimetric dye, 3-(4,5-dimethylthiazol-2-yl)-2,5-diphenyltetrazolium bromide, and is available from Sigma. Neuroprotection increased with increasing concentrations of DHLA.
as §1, with “To suppress glial growth. the cultures are treated with cytosine arabinoside (10^−5 M) for 4 days. All cultures are maintained in an incubator comprising 5% CO2 at 37° C. for about 6 days to about 15 days prior to use.” left out
Oxidative injury is assessed by using an MTT assay (Sigma, St. Louis, Mo.). […] About 200 μl aliquots are collected and the absorbance of these aliquots are measured on an ELISA plate reader at about 540 nm. Control (untreated) wells are included in each experiment, and viability is calculated as the percentage of mean control values for each plate.

[2] = system: cultured mouse hippocampal HT4 cells; conditions: cited from earlier work

For `O=C(O)CCCC[C@@H](S)CCS` (racemic) [DHL, dihydrolipoic acid], the “% Neuroprotection” value (cultured neurons; DHL 3 μM, SPBN 0 mM) was 1.31 ± 5.23%, the “% Neuroprotection” value (cultured neurons; DHL 10 μM, SPBN 0 mM) was −3.68 ± 5.14% and the “% Neuroprotection” value (cultured neurons; DHL 30 μM, SPBN 0 mM) was 7.04 ± 7.38%. The “% Neuroprotection” value (cultured neurons; DHL 100 μM, SPBN 0 mM) was 28.48 ± 5.83%, the “% Neuroprotection” value (cultured neurons; Table 2 experiment: DHL 3 μM, PBN 0 mM) was −1.3 ± 7.2% and the “% Neuroprotection” value (cultured neurons; Table 2 experiment: DHL 10 μM, PBN 0 mM) was 22.2 ± 13.6%. For the same molecule, the “% Neuroprotection” value (cultured neurons; Table 2 experiment: DHL 30 μM, PBN 0 mM) was 22.1 ± 9.7%, the “% Neuroprotection” value (cultured neurons; Table 2 experiment: DHL 100 μM, PBN 0 mM) was 36.9 ± 9.6% and the “protection against experimental spinal cord injury (motor scores)” value (rats) was “protective; also recorded: improve motor scores”. The “neuroprotection against hemoglobin-induced toxicity (neuronal viability, MTT)” value ([1]; DHLA co-applied with hemoglobin (no pre-incubation)) was “no evidence of neuroprotection” and the “neuroprotection against hemoglobin-induced toxicity (neuronal viability, MTT)” value ([1]; pre-incubation about 4 hours, about 0.3 to about 10 micromolar DHLA, then about 10 micromoles hemoglobin for about 24 hours) was “protective in a concentration-related manner”.
With `CC(C)(C)[N+]([O-])=Cc1ccccc1` [PBN, alpha-Phenyl-N-tert-butylnitrone, reference compound] the “effect on the neuroprotective efficacy of DHL” value (cultured neurons; 10 mM PBN co-incubated with 3-100 μM DHL) was “significantly increased”.
For `CN(C)CCNC(=O)CCCCC1CCSS1.Cl` (centres unmarked) [LA-plus, 2-(N,N-dimethylamine) ethylamido lipoate-HCL], the “in vitro protection against glutamate-induced loss of GSH, formation of peroxide and neurotoxicity, compared with ALA” value [2] is given as “better”.
In the case of `CC(C)(C)[N+]([O-])=Cc1ccccc1S(=O)(=O)O` [SPBN, N-tert-Butyl-α-(2-sulfophenyl)nitrone, reference compound], the “effect on the neuroprotective efficacy of DHL” value (cultured neurons; 10 mM SPBN co-incubated with 3-100 μM DHL) is reported as “significantly increased”.
